Assay results as given in patent US20240018123A1, “COMPOUND FOR INHIBITING OR DISINTEGRATING ANDROGEN RECEPTOR, AND PHARMACEUTICAL USE THEREOF” (KOREA RESEARCH INSTITUTE OF CHEMICAL TECHNOLOGY, priority 2020, published 2024).

Experiments:
Androgen receptor (AR) = target: T1, Androgen receptor (AR) (Homo sapiens, UniProt P10275, T878A); experiment: Assessment of AR proteolytic activity (Western blotting of LNCap cell lysates); assay type: cell-based; details: 24 hours of treatment, Western blotting quantified with Image J
T1 construct: 5.5×10^5 LNCap cells were injected into each well of a 6-well plate; endogenous in cells; host or cells: LNCaP
T1 sequence (P10275 1-920 T878A): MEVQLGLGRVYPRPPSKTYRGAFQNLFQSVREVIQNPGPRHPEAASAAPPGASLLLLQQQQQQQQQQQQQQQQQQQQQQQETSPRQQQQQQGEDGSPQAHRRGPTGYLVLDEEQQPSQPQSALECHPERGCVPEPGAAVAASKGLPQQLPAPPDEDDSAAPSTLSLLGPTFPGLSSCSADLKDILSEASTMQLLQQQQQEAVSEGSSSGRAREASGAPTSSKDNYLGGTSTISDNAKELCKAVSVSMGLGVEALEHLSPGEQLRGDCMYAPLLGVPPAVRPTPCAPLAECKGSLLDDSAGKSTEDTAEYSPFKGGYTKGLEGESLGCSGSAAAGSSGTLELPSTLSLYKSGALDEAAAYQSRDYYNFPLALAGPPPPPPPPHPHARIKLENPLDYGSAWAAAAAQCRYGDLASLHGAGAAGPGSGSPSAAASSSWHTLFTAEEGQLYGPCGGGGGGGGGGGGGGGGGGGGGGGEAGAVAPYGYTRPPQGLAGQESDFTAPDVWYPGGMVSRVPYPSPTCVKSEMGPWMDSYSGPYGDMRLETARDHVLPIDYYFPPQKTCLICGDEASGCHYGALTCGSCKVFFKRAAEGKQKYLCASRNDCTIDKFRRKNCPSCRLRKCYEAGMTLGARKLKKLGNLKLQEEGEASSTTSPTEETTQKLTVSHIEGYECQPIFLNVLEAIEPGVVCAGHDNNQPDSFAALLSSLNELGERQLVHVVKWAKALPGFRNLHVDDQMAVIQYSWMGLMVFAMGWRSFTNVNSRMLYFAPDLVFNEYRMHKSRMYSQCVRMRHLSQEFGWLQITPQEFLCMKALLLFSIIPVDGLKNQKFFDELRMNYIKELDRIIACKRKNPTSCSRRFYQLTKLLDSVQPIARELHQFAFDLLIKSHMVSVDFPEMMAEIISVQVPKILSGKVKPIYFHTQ
How it was run: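 LNCap cells seeded at 5.5×10^5 per well and treated with compound for 24 hours. Lysates prepared in RIPA buffer (pH 7.5, with protease inhibitors). AR protein levels assessed by Western blot with densitometric quantification.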

22RV1 cells = experiment: Cytotoxicity assessment (Cell-titer-glo cell viability), 22RV1; assay type: cell-based
Procedure: In order to evaluate the androgen receptor (AR) cytotoxicity of the compounds according to the present invention, the following experiment was conducted. Specifically, 1.5×10^3 (LNCaP) or 4×10^3 (VCaP, 22RV1), respectively, of LNCaP, VCaP, and 22RV1 cells were injected into each well of a 96-well plate. The next day, each well was treated with the compound at a final concentration of 3 nM, 10 nM, 30 nM, 100 nM, 300 nM, 1 μM, 3 μM, and 10 μM. […] After 6 days of treatment, Cell-titer-glo (promega) was treated and reacted for 10 minutes, and cell viability was measured with a multimode plate reader (PerkinElmer, Inc.), and the change was quantified compared to when DMSO was treated.

SMILES: CC1(C)[C@H](NC(=O)c2ccc(OCCOCCOCCOCCOCCOCCCNc3cccc4nnn(C5CCC(=O)NC5=O)c(=O)c34)cc2)C(C)(C)[C@H]1Oc1ccc(C#N)c(Cl)c1 (single isomer, unassigned) [Example 4, N-((1r,3r)-3-(3-chloro-4-cyanophenoxy)-2,2,4,4-tetramethylcyclobutyl)-4-((18-((3-(2,6-dioxopiperidin-3-yl)-4-oxo-3,4-dihydrobenzo[d][1,2,3]triazin-5-yl)amino)-3,6,9,12,15-pentaoxaoctadecyl)oxy)benzamide]
- Degradation (1 μM treated in LNCaP, % AR remaining) (Androgen receptor (AR)): 58%
- CC50 (22RV1 cells): 4460 nM
- CC50 (LNCaP cells): 5.32 µM

SMILES: CC1(C)[C@H](NC(=O)c2ccc(OCCOCCOCCOCCOCCOCCCNc3cccc4nnn(C5CCC(=O)NC5=O)c(=O)c34)cc2)C(C)(C)[C@H]1Oc1ccc(C#N)c(Cl)c1 (single isomer, unassigned) [Example 3, N-((1r,3r)-3-(3-chloro-4-cyanophenoxy)-2,2,4,4-tetramethylcyclobutyl)-4-((18-((3-(2,6-dioxopiperidin-3-yl)-4-oxo-3,4-dihydrobenzo[d][1,2,3]triazin-5-yl)amino)-3,6,9,12,15-pentaoxaoctadecyl)oxy)benzamide]
- Degradation (1 μM treated in LNCaP, % AR remaining) (Androgen receptor (AR)): 47%
- CC50 (22RV1 cells): 430 nM
- CC50 (LNCaP cells): 2.98 µM
